{"source": "paper PMC3859378", "about": "(Archives of biochemistry and biophysics, 2013)", "biological_target": "Mtb-GAPDH (Mycobacterium tuberculosis, UniProt P9WN83)", "sequence (P9WN83 whole entry)": "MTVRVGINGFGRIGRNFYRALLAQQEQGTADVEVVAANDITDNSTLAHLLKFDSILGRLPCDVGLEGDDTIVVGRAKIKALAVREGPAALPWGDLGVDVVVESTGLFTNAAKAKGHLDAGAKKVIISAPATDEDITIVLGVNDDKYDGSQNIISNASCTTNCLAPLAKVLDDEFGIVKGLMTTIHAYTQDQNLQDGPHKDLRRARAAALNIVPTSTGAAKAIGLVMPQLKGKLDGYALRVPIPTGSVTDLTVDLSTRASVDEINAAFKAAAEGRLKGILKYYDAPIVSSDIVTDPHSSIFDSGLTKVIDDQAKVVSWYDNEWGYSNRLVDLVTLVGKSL", "test": "time- and concentration-dependent inactivation, Kitz-Wilson re-plot", "type": "biochemical", "details": "read-out: Ki", "data": [{"smiles": "NC(=O)CI", "note": "[IAM, iodoacetamide]", "values": [{"measurement": "KI (inactivation)", "result": 7.8, "unit": "mM"}]}]}
